What was measured:
Cytochrome b [1] = target: Cytochrome b (Homo sapiens, UniProt P00156); assay: Cytochrome b Enzyme Assay; details: pH 7.4; 25 °C
Protocol: (§1) Reaction plates were incubated at room temperature for 10 min before reading absorbance at 550 nm. Absolute IC50 values were calculated in GraphPad Prism 6.0.

Cytochrome b [2] = target: T1, Cytochrome b (Candida albicans, UniProt I2BJW5); assay: Cytochrome b Enzyme Assay; details: pH 7.4; 25 °C
T1 sequence (I2BJW5 whole entry): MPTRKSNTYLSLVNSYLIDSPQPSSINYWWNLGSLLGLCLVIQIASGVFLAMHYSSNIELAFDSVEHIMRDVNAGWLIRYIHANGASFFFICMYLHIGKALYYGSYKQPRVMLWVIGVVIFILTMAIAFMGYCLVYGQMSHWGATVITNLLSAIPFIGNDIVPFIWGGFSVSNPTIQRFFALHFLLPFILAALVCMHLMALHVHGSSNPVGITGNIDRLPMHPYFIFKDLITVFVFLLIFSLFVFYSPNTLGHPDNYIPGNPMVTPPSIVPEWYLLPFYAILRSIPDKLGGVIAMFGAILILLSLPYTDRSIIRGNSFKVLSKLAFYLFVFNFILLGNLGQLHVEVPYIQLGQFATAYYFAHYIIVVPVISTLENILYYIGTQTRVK
Protocol: as §1

Sequence of Cytochrome b (Homo sapiens, UniProt P00156) (P00156 whole entry): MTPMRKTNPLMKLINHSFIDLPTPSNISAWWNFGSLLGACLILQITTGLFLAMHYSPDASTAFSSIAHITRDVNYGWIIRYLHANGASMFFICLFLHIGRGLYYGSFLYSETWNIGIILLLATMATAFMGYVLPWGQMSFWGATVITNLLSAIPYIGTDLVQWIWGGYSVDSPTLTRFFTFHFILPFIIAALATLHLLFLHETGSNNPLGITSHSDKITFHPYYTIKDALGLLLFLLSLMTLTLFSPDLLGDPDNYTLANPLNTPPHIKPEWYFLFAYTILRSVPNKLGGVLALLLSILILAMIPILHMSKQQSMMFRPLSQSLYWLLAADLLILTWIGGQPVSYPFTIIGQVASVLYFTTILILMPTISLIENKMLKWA

Row | IC50 (Cytochrome b [1]) | IC50 (Cytochrome b [2]) | SMILES
1 | > 64 µM | > 64 µM | CON(C)C(=O)Cn1nc(-c2ccccc2)c2ccccc21 [Inz-26]
2 | > 64 µM | > 64 µM | CS(=O)(=O)Cn1nc(-c2ccccc2)c2ccccc21 [Inz-27]
3 | > 64 µM | > 64 µM | FC(F)(F)Cn1nc(-c2ccccc2)c2ccccc21 [Inz-28]
4 | > 64 µM | > 64 µM | c1ccc(-c2nn(Cc3cncs3)c3ccccc23)cc1 [Inz-29]
5 | > 64 µM | > 64 µM | c1ccc(-c2nn(Cc3nccs3)c3ccccc23)cc1 [Inz-30]
6 | > 64 µM | > 64 µM | Cc1cc(Cn2nc(-c3ccccc3)c3ccccc32)on1 [Inz-31]
7 | > 64 µM | > 64 µM | Cc1nnc(Cn2nc(-c3ccccc3)c3ccccc32)o1 [Inz-32]
8 | > 64 µM | > 64 µM | c1ccc(-c2nn(Cc3nn[nH]n3)c3ccccc23)cc1 [Inz-33]
9 | > 64 µM | 22.6 µM | Cn1nnc(Cn2nc(-c3ccccc3)c3ccccc32)n1 [Inz-34]
10 | > 64 µM | > 64 µM | Cn1cc(Cn2nc(-c3ccccc3)c3ccccc32)nn1 [Inz-35]
11 | > 64 µM | > 64 µM | c1ccc(-c2nn(Cc3ncccn3)c3ccccc23)cc1 [Inz-36]
12 | > 64 µM | 5.42 µM | c1ccc(-c2nn(Cc3cnccn3)c3ccccc23)cc1 [Inz-37]
13 | > 64 µM | 0.602 µM | Cc1cccc2c(-c3cc(C(F)(F)F)ccc3F)nn(Cc3cnccn3)c12 [Inz-38]
14 | 10.8 µM | 0.141 µM | Fc1ccc(C(F)(F)F)cc1-c1nn(Cc2cnccn2)c2c(F)cccc12 [Inz-39]
15 | 28.1 µM | 0.981 µM | CCOc1cccc(-c2nn(CC(=O)OC)c3ccccc23)c1 [Inz-40]
16 | > 64 µM | 44.1 µM | COC(=O)Cn1nc(-c2cccc(O)c2)c2ccccc21 [Inz-41]
17 | > 64 µM | 7.24 µM | COC(=O)Cn1nc(-c2cccc(OCc3ccccc3)c2)c2ccccc21 [Inz-42]
18 | > 64 µM | 22.8 µM | CCC(=O)Cn1nc(-c2cccc(OCc3ccccc3)c2)c2ccccc21 [Inz-43]
19 | > 64 µM | > 64 µM | Cn1nc(-c2cccc(OCc3ccccc3)c2)c2ccccc21 [Inz-44]

Row | IC50 (Cytochrome b [1]) | IC50 (Cytochrome b [2]) | SMILES
20 | 1.17 µM | 0.0663 µM | COC(=O)Cn1nc(-c2cccc(CCc3ccccc3)c2)c2ccccc21 [Inz-45]
21 | > 64 µM | > 64 µM | c1ccc(COc2cccc(-c3n[nH]c4ccccc34)c2)cc1 [Inz-46]
22 | > 64 µM | > 64 µM | O=C(O)Cn1nc(-c2cccc(OCc3ccccc3)c2)c2ccccc21 [Inz-47]
23 | > 64 µM | > 64 µM | COC(=O)Cn1ccc(-c2cccc(OCc3ccccc3)c2)n1 [Inz-48]
24 | > 64 µM | 13.1 µM | COC(=O)Cn1cc(-c2cccc(OCc3ccccc3)c2)c2ccccc21 [Inz-50]
25 | > 64 µM | 50.5 µM | COC(=O)Cn1nc(-c2ccccc2C(F)(F)F)c2ccccc21 [Inz-51]
26 | > 64 µM | 3.57 µM | COC(=O)Cn1nc(-c2ccccc2O)c2ccccc21 [Inz-52]
27 | > 64 µM | 43.4 µM | COC(=O)Cn1nc(-c2ccc(CCc3ccccc3)cc2)c2ccccc21 [Inz-53]
28 | 9.23 µM | 0.344 µM | COC(=O)Cn1nc(-c2cccc(OCC(C)C)c2)c2ccccc21 [Inz-54]
29 | > 64 µM | > 64 µM | COC(=O)Cn1nc(-c2ccccc2OCc2ccccc2)c2ccccc21 [Inz-55]
30 | > 64 µM | > 64 µM | COC(=O)Cn1c(C)c(-c2cccc(OCc3ccccc3)c2)c2ccccc21 [Inz-56]
31 | 4.77 µM | 0.156 µM | COC(=O)Cn1nc(-c2cccc(OCCC(C)C)c2)c2ccccc21 [Inz-57]
32 | > 64 µM | > 64 µM | COC(=O)Cn1nc(-c2c(C)cccc2C)c2ccccc21 [Inz-58]
33 | > 64 µM | 2.36 µM | COC(=O)Cn1nc(-c2c(F)cccc2F)c2ccccc21 [Inz-59]
34 | > 64 µM | 1.43 µM | COC(=O)Cn1nc(-c2cccc(F)c2F)c2ccccc21 [Inz-60]
35 | > 64 µM | 0.891 µM | COC(=O)Cn1nc(-c2cc(F)ccc2F)c2ccccc21 [Inz-61]
36 | > 64 µM | 4.7 µM | COC(=O)Cn1nc(-c2cc(F)ccc2C)c2ccccc21 [Inz-62]
37 | > 64 µM | 35.2 µM | COC(=O)Cn1nc(-c2cccc(OCCN(C)C)c2)c2ccccc21 [Inz-63]

The remaining lines, values behind:

Row | SMILES | IC50 (Cytochrome b [1]) | IC50 (Cytochrome b [2])
38 | O=C1C(=O)c2ccccc2C(O)=C1C1CCC(c2ccc(Cl)cc2)CC1 (stereo not drawn) [3-[4-(4-chlorophenyl)cyclohexyl]-4-hydroxynaphthalene-1,2-dione] | 1.88 µM | 3.79 µM
39 | COC(=O)Cn1nc(-c2ccccc2)c2ccccc21 [Inz-1] | 45.3 µM | 8.09 µM
40 | COC(=O)Cn1nc(-c2cc(C(F)(F)F)ccc2F)c2ccccc21 [Inz-2] | 4.62 µM | 0.145 µM
41 | COC(=O)Cn1nc(-c2ccccc2)c2cccc(C)c21 [Inz-3] | 21.3 µM | 1.01 µM
42 | COC(=O)Cn1nc(-c2cc(C(F)(F)F)ccc2F)c2cccc(C)c21 [Inz-4] | 1.04 µM | 0.026 µM
43 | Cc1cccc2c(-c3cc(C(F)(F)F)ccc3F)nn(Cc3nnn(C)n3)c12 [Inz-5] | 6.51 µM | 0.289 µM
44 | COC(=O)Cn1nc(-c2cccc(OC)c2)c2ccccc21 [Inz-6] | 28.4 µM | 1.52 µM
45 | COC(=O)Cn1nc(-c2cccc(Oc3ccccc3)c2)c2ccccc21 [Inz-7] | 9.97 µM | 0.714 µM
46 | COC(=O)Cn1nc(-c2cccc(OCCc3ccccc3)c2)c2ccccc21 [Inz-8] | 13.9 µM | 0.346 µM
47 | COC(=O)Cn1nc(-c2cccc(OCC3CCCCC3)c2)c2ccccc21 [Inz-9] | 0.889 µM | 0.087 µM
48 | COC(=O)Cn1nc(-c2cccc(C(F)(F)F)c2)c2ccccc21 [Inz-10] | 8.65 µM | 1.06 µM
49 | COC(=O)Cn1nc(-c2cccc(C#N)c2)c2ccccc21 [Inz-11] | > 64 µM | 10.1 µM
50 | COC(=O)Cn1nc(-c2cccc([N+](=O)[O-])c2)c2ccccc21 [Inz-12] | > 64 µM | 6.07 µM
51 | COC(=O)Cn1nc(-c2ccsc2)c2ccccc21 [Inz-13] | > 64 µM | 9.23 µM
52 | COC(=O)Cn1nc(-c2cccnc2)c2ccccc21 [Inz-14] | > 64 µM | > 64 µM
53 | COC(=O)Cn1nc(-c2ccccn2)c2ccccc21 [Inz-15] | > 64 µM | 62.4 µM
54 | COC(=O)Cn1nc(-c2ccccc2OC)c2ccccc21 [Inz-16] | > 64 µM | 22.9 µM
55 | COC(=O)Cn1nc(-c2ccccc2C)c2ccccc21 [Inz-17] | > 64 µM | 3.37 µM
56 | COC(=O)Cn1nc(-c2ccccc2Cl)c2ccccc21 [Inz-18] | > 64 µM | 5.41 µM
57 | COC(=O)Cn1nc(-c2ccccc2F)c2ccccc21 [Inz-19] | 36 µM | 2.97 µM
58 | COC(=O)Cn1nc(-c2ccccc2C#N)c2ccccc21 [Inz-20] | > 64 µM | > 64 µM
59 | COC(=O)Cn1nc(-c2cc(C(F)(F)F)ccc2F)c2cc(C(F)(F)F)ccc21 [Inz-21] | > 64 µM | > 64 µM
60 | COC(=O)Cn1nc(-c2cc(C(F)(F)F)ccc2F)c2c(C(F)(F)F)cccc21 [Inz-22] | > 64 µM | 46.8 µM
61 | COC(=O)Cn1nc(-c2cc(C(F)(F)F)ccc2F)c2c(C)cccc21 [Inz-23] | > 64 µM | 10.8 µM
62 | O=C(O)Cn1nc(-c2ccccc2)c2ccccc21 [Inz-24] | > 64 µM | > 64 µM
63 | CNC(=O)Cn1nc(-c2ccccc2)c2ccccc21 [Inz-25] | > 64 µM | > 64 µM
64 | COC(=O)Cn1ncc2ccccc21 [Inz-49] | > 64 µM | > 64 µM

From BindingDB's records for doi:10.1016/j.chembiol.2016.06.016 (Massachusetts Institute of Technology, 2016)
